target: T1, Human TREX1 enzyme (amino acids 1-242) (Homo sapiens, UniProt Q9NSU2); test: Human TREX1 enzymatic assay with dsDNA native oligonucleotide (Picogreen fluorescence); assay type: biochemical; conditions: 2 mM dithiothreitol in assay buffer; 50 nM dsDNA oligonucleotide; 30 min preincubation at 25° C.; read-out: TREX1/Human + DTT IC50 AVG
T1 construct: Human TREX1 enzyme (amino acids 1-242)
T1 sequence (Q9NSU2 1-242): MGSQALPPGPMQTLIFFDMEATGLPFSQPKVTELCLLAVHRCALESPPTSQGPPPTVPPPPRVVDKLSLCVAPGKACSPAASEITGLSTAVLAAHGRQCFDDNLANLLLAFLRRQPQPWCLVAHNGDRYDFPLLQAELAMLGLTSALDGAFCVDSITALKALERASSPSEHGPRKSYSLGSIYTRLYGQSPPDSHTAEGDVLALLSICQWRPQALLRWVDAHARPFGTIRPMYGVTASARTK
Method: Example A. Human TREX1 Enzymatic Assay with dsDNA Native Oligonucleotide
Human TREX1 enzyme (amino acids 1-242) was diluted in assay buffer (20 mM Tris pH 7.7, 5 mM MgCl2, 0.01% human serum albumin, 0.01% Brij™-35, 2 mM dithiothreitol) to a final concentration of 0.8 nM to 0.16 nM and added to a 96-well low-binding polypropylene plate. Test compounds were diluted in DMSO to 50× concentration (final DMSO concentration in reaction mixture of 2%) and added to the wells with a concentration ranging from 300 μM to 13 nM or 30 μM to 1.5 nM. The reaction mixtures were incubated for 30 minutes at 25° C. and a solution of annealed dsDNA oligonucleotide (5′-[…]-3′ and Comp: 5′-[…]-3′) was added to a final concentration of 50 nM. The reaction mixtures were incubated at 25° C. for 5-15 minutes and subsequently quenched by transferring part of the assay reaction to a solution of 100 mM ethylenediaminetetraacetic acid and 1:100 Picogreen™ (final concentration of […]) in a black plate with an opaque bottom. The fluorescence ([…]) was measured using a Molecular Devices SpectraMax plate reader. Wells containing oligonucleotide but no TREX1 enzyme were used as negative controls. Wells containing oligonucleotide, TREX1 enzyme, and DMSO were used as positive controls.

Compound	IC50
COc1cc(-c2nc3ccccc3n2C2COC2)c(C)c(O)c1O [Example 1, 6-methoxy-3-methyl-4-(1-(oxetan-3-yl)-1H-benzo[d]imidazol-2-yl)benzene-1,2-diol]	10 to 100 µM
O=C(O)c1ccc(-c2nc3ccncc3[nH]2)cc1O [Example 2, 2-hydroxy-4-(3H-imidazo[4,5-c]pyridin-2-yl)benzoic acid]	10 to 100 µM
O=C(O)c1cc(-c2nc3ccccc3n2C2COC2)ccc1O [Example 3, 2-hydroxy-5-(1-(oxetan-3-yl)-1H-benzo[d]imidazol-2-yl)benzoic acid]	> 100 µM
COc1cc(-c2nc3cc(N4CCC4)ccc3[nH]2)cc(O)c1O [Example 4, 5-(5-(azetidin-1-yl)-1H-benzo[d]imidazol-2-yl)-3-methoxybenzene-1,2-diol]	1 to 10 µM
COc1cc(-c2nc3ccncc3[nH]2)cc(C(=O)O)c1O [Example 5, 2-hydroxy-5-(3H-imidazo[4,5-c]pyridin-2-yl)-3-methoxybenzoic acid]	1 to 10 µM
COc1cc(-c2nc3cc(N4CCC4)ccc3[nH]2)cc(C(=O)O)c1O [Example 6, 5-[6-(azetidin-1-yl)-1H-benzimidazol-2-yl]-2-hydroxy-3-methoxybenzoic acid]	1 to 10 µM
COc1cc(-c2nc3ccccc3[nH]2)cc(O)c1O [Example 9, 5-(1H-benzo[d]imidazol-2-yl)-3-methoxybenzene-1,2-diol]	> 100 µM
COc1cc(-c2nc3ccccc3n2C)cc(O)c1O [Example 10, 3-methoxy-5-(1-methyl-1H-benzo[d]imidazol-2-yl)benzene-1,2-diol]	> 100 µM
COc1cc(-c2nc3ccccc3n2C2COC2)cc(O)c1O [Example 11, 3-methoxy-5-(1-(oxetan-3-yl)-1H-benzo[d]imidazol-2-yl)benzene-1,2-diol]	10 to 100 µM
COc1cc(-c2nc3ccncc3[nH]2)cc(O)c1O [Example 12, 5-(3H-imidazo[4,5-c]pyridin-2-yl)-3-methoxybenzene-1,2-diol]	10 to 100 µM
COc1cc(-c2nc3ccccc3n2C2CCOC2)cc(O)c1O (stereo not shown) [Example 13, 3-methoxy-5-(1-(tetrahydrofuran-3-yl)-1H-benzo[d]imidazol-2-yl)benzene-1,2-diol]	10 to 100 µM
COc1cc(-c2nc3cnncc3[nH]2)cc(O)c1O [Example 14, 5-(1H-imidazo[4,5-d]pyridazin-2-yl)-3-methoxybenzene-1,2-diol]	> 100 µM
COCCn1c(-c2cc(O)c(O)c(OC)c2)nc2ccccc21 [Example 15, 3-methoxy-5-(1-(2-methoxyethyl)-1H-benzo[d]imidazol-2-yl)benzene-1,2-diol]	> 100 µM
COc1c(C)c(-c2nc3ccccc3[nH]2)cc(O)c1O [Example 16, 5-(1H-benzo[d]imidazol-2-yl)-3-methoxy-4-methylbenzene-1,2-diol]	> 100 µM
COc1cc(-c2nc3ccccc3[nH]2)c(C)c(O)c1O [Example 17, 4-(1H-benzo[d]imidazol-2-yl)-6-methoxy-3-methylbenzene-1,2-diol]	> 100 µM
COc1cc(-c2nc3cc(N4CCNCC4)ccc3[nH]2)cc(O)c1O [Example 18, 3-methoxy-5-(5-(piperazin-1-yl)-1H-benzo[d]imidazol-2-yl)benzene-1,2-diol]	> 100 µM
COc1cc(-c2nc3cc(S(=O)(=O)Nc4ccccc4)ccc3[nH]2)cc(O)c1O [Example 19, 2-(3,4-dihydroxy-5-methoxyphenyl)-N-phenyl-1H-benzo[d]imidazole-5-sulfonamide]	> 100 µM
CNS(=O)(=O)c1ccc2[nH]c(-c3cc(O)c(O)c(OC)c3)nc2c1 [Example 20, 2-(3,4-dihydroxy-5-methoxyphenyl)-N-methyl-1H-benzo[d]imidazole-5-sulfonamide]	> 100 µM
COc1cc(-c2nc3c(C)cccc3[nH]2)cc(O)c1O [Example 21, 3-methoxy-5-(4-methyl-1H-benzo[d]imidazol-2-yl)benzene-1,2-diol]	> 100 µM

Compound	IC50
COc1cc(-c2nc3cc(N4CCN(C(=O)CCCC[C@@H]5SC[C@@H]6NC(=O)N[C@@H]65)CC4)ccc3[nH]2)cc(O)c1O [Example 23, (3aS,4S,6aR)-4-(5-(4-(2-(3,4-dihydroxy-5-methoxyphenyl)-1H-benzo[d]imidazol-5-yl)piperazin-1-yl)-5-oxopentyl)tetrahydro-1H-thieno[3,4-d]imidazol-2(3H)-one]	1 to 10 µM
COc1cc(-c2nc3cc(N4CCN(C)CC4)ccc3[nH]2)cc(O)c1O [Example 24, 3-methoxy-5-(5-(4-methylpiperazin-1-yl)-1H-benzo[d]imidazol-2-yl)benzene-1,2-diol]	> 100 µM
COc1cc(-c2nc3cc(N4CCOCC4)ccc3[nH]2)cc(O)c1O [Example 25, 3-methoxy-5-(5-morpholino-1H-benzo[d]imidazol-2-yl)benzene-1,2-diol]	> 100 µM
COc1cc(-c2nc3cc(N4CCN(C(C)=O)CC4)ccc3[nH]2)cc(O)c1O [Example 26, 1-(4-(2-(3,4-dihydroxy-5-methoxyphenyl)-1H-benzo[d]imidazol-5-yl)piperazin-1-yl)ethanone]	> 100 µM
COc1cc(-c2nc3cc(N4CCN(C(C)=O)CC4)ccc3n2C(C)=O)cc(O)c1O [Example 27, 1-(4-(1-acetyl-2-(3,4-dihydroxy-5-methoxyphenyl)-1H-benzo[d]imidazol-5-yl)piperazin-1-yl)ethanone]	10 to 100 µM
COc1cc(-c2nc3cc(N4CCC4)ccc3n2C2CCOC2)cc(C(=O)O)c1O (stereo not shown) [Example 28, 5-(5-(azetidin-1-yl)-1-(tetrahydrofuran-3-yl)-1H-benzo[d]imidazol-2-yl)-2-hydroxy-3-methoxybenzoic acid]	10 to 100 µM
CCn1c(-c2cc(O)c(O)c(OC(C)C)c2)nc2cccnc21 [Example 29, 5-(3-ethyl-3H-imidazo[4,5-b]pyridin-2-yl)-3-isopropoxybenzene-1,2-diol]	> 100 µM
COc1cc(-c2nc3cc(N4CCN(C(=O)c5ccccc5)CC4)ccc3[nH]2)c(C(F)(F)F)c(O)c1O [Example 30, (4-(2-(3,4-dihydroxy-5-methoxy-2-(trifluoromethyl)phenyl)-1H-benzo[d]imidazol-5-yl)piperazin-1-yl)(phenyl)methanone]	10 to 100 µM
COc1cc(-c2nc3cc(N4CCN(C(=O)c5ccccc5)CC4)ccc3[nH]2)cc(O)c1O [Example 31, (4-(2-(3,4-dihydroxy-5-methoxyphenyl)-1H-benzo[d]imidazol-5-yl)piperazin-1-yl)(phenyl)methanone]	1 to 10 µM
COc1cc(-c2nc3cc(N4CCN(C(=O)c5cccnc5)CC4)ccc3[nH]2)cc(O)c1O [Example 32, (4-(2-(3,4-dihydroxy-5-methoxyphenyl)-1H-benzo[d]imidazol-5-yl)piperazin-1-yl)(pyridin-3-yl)methanone]	10 to 100 µM
C=CCCC(=O)N1CCN(c2ccc3[nH]c(-c4cc(O)c(O)c(OC)c4)nc3c2)CC1 [Example 33, 1-(4-(2-(3,4-dihydroxy-5-methoxyphenyl)-1H-benzo[d]imidazol-5-yl)piperazin-1-yl)pent-4-en-1-one]	10 to 100 µM
C=CCCC(=O)N1CCN(c2ccc3c(c2)nc(-c2cc(O)c(O)c(OC)c2)n3C(=O)CCC=C)CC1 [Example 34, 1-(4-(2-(3,4-dihydroxy-5-methoxyphenyl)-1-(pent-4-enoyl)-1H-benzo[d]imidazol-5-yl)piperazin-1-yl)pent-4-en-1-one]	10 to 100 µM
COc1cc(-c2nc3cc(N4CCN(C)CC4)ccc3n2C)cc(O)c1O [Example 35, 3-methoxy-5-(1-methyl-5-(4-methylpiperazin-1-yl)-1H-benzo[d]imidazol-2-yl)benzene-1,2-diol]	> 100 µM
COc1cc(-c2nc3ncccc3n2C2COC2)cc(O)c1O [Example 36, 3-methoxy-5-(1-(oxetan-3-yl)-1H-imidazo[4,5-b]pyridin-2-yl)benzene-1,2-diol]	> 100 µM
COc1cc(-c2nc3c(-c4ccccc4)ncnc3[nH]2)cc(O)c1O [Example 37, 3-methoxy-5-(6-phenyl-9H-purin-8-yl)benzene-1,2-diol]	> 100 µM
COc1cc(-c2nc3ccc(N4CCN(C)CC4)cc3n2C)cc(O)c1O [Example 38, 3-methoxy-5-(1-methyl-6-(4-methylpiperazin-1-yl)-1H-benzo[d]imidazol-2-yl)benzene-1,2-diol]	> 100 µM
COc1cc(-c2nc3ccc(S(=O)(=O)Nc4ccccc4)cc3n2C2COC2)cc(O)c1O [Example 39, 2-(3,4-dihydroxy-5-methoxyphenyl)-1-(oxetan-3-yl)-N-phenyl-1H-benzo[d]imidazole-6-sulfonamide]	10 to 100 µM
CC(C)COc1cc(-c2nc3cccnc3n2CC(C)C)cc(O)c1O [Example 40, 3-isobutoxy-5-(3-isobutyl-3H-imidazo[4,5-b]pyridin-2-yl)benzene-1,2-diol]	> 100 µM
